Literature values as cited in patent US20110245183A1, “Topical Uses of Szeto-Schiller Peptides” (priority 2010, published 2011).
Where no end group is shown, it is not given here. [ ]: non-standard residue; d: D form. Dmt = Cc1cc(O)cc(C)c1C[C@H](N)C(=O)O

Experiments:
isolated mitochondria = conditions: MPP+ (1-methyl-4-phenylpyridium)
[1] = tested on: Parkinson's Disease (PD) or Amyotrophic Lateral Sclerosis (ALS); conditions: mice studies

Row | Substance | MPP+-induced inhibition of ATP production (isolated mitochondria) | MPP+-induced inhibition of oxygen consumption (isolated mitochondria) | MPP+-induced mitochondrial swelling (isolated mitochondria) | effectiveness in the treatment of Parkinson's Disease (PD) or Amyotrophic Lateral Sclerosis (ALS) [1] | inhibiting LDL oxidation (LDL)
1 | Phe-D-Arg-Phe-Lys-NH2 (F[dR]FK-NH2; N-terminus assumed; SMILES N=C(N)NCCC[C@@H](NC(=O)[C@@H](N)Cc1ccccc1)C(=O)N[C@@H](Cc1ccccc1)C(=O)N[C@@H](CCCCN)C(N)=O) [SS-20] | prevented | prevented | prevented | may be effective | –
2 | D-Arg-2′,6′-Dmt-Lys-Phe-NH2 ([dR][Dmt]KF-NH2) [SS-31] | prevented | prevented | prevented | may be effective | as effective as SS-02
